# Assay results taken from patent publication US20120021010A1, “ANTIPLATELET AGENT AND METHODS OF USING THE SAME” (University of Calcutta, priority 2010, published 2012).
# Tested on: platelets
# Assay: ADP-induced platelet aggregation, chronolog optical aggregometry
# Type: cell-based, human
# Settings: platelets of patient treated with clopidogrel; inset of FIG. 3C
# Description: In this example, platelet aggregation in the presence of SPIONs and various agonists was examined. The study was carried out using chronolog optical aggregometry.
# FIGS. 2A and 2B respectively represent aggregometric results in presence of the agonists arachidonic acid (0.5 mM) and ADP (10 μM). Arachidonic acid is the main target for the antiplatelet drug aspirin and ADP is the main target for the antiplatelet drug clopidogrel. […] Thus, SPIONs cause no change in ADP- and arachidonic acid-induced aggregation of platelets from normal healthy individuals. The 85% to 95% aggregation increase in FIG. 2B can be ignored as the fractional increase is insignificant.
compound,measurement,value
COC(=O)[C@H](c1ccccc1Cl)N1CCc2sccc2C1 [clopidogrel],ADP-induced platelet aggregation in a patient treated with clopidogrel,ADP cannot induce aggregation
